Measured values: patent US20250228954A1, “Designing Antisense Oligonucleotide Delivery Peptides by Interpretable Machine Learning” (Sarepta Therapeutics, Inc., priority 2020, published 2025)

Key:
HeLa 654 cells [1] = assay: HeLa-654 eGFP assay (corrective splicing / exon skipping by PMO IVS2-654); type: cell-based, human; settings: 5 μM, 22 h; for FOLD OVER PMO: eGFP fluorescence of PMO-peptide conjugate relative to unconjugated PMO
Description: With the 36 constructs synthesized, the ability to modulate PMO activity using the modified HeLa cell assay was tested. The HeLa-654 cells were stably transfected to express a nonfluorescent eGFP protein. The eGFP gene is interrupted by a mutant intron from the human β-globin gene (IVS2-654). The insertion alters pre-mRNA splicing to cause retention of a fragment in the mature mRNA that results in a nonfluorescent protein. PMO IVS2-654 base-pairs with the B-globin insertion, modifies mRNA splicing, and thereby leads to expression of fluorescent eGFP.
For treatment, the crude reaction mixture was diluted to 5 μM in media. The concentration of the modular construct was calculated based on the original concentration of the module 1-2 conjugate mixed in the reaction. Using media containing 10% fetal bovine serum (FBS), the cells were treated with each construct for 22 hours, after which the cellular fluorescence was measured by flow cytometry.
From the lists of hundreds of predicted peptide sequences, twenty candidates were selected that varied in length, charge, and predicted activity to synthesize and test. Just as with the PMO-peptide library, the PMO-Mach constructs were first tested for PMO delivery in the HeLa 654 assay at 5 μM in complete media for 22 hours and analyzed by flow cytometry (FIG. 14). Experiments were conducted using three technical triplicates and two or three biological replicates.
(§1) HeLa 654 cells were maintained in MEM supplemented with 10% (v/v) fetal bovine serum (FBS) and 1% (v/v) penicillin-streptomycin at 37° C. and 5% CO2. Eighteen hours prior to treatment, the cells were plated at a density of 5,000 cells per well in a 96-well plate in MEM supplemented with 10% FBS and 1% penicillin-streptomycin. The day of the experiment, the 384 well plate containing the crude reaction mixtures in DMSO was diluted to 100 μM by the addition of 16.8 μL of PBS to the 3.2 μL reaction mixture. Then, each construct was diluted to 5 μM in MEM supplemented with 10% FBS and 1% penicillin-streptomycin. Cells were incubated with each conjugate at a concentration of 5 μM for 22 hours at 37° C. and 5% CO2. Next, the treatment media was aspirated the cells were incubated with Trypsin-EDTA 0.25% for 15 min at 37° C. and 5% CO2, washed 1× with PBS, and resuspended in PBS with 2% FBS and 2 μg/mL propidium iodide. Flow cytometry analysis was carried out on a BD LSRII flow cytometer. Gates were applied to the data to ensure that cells that were highly positive for propidium iodide or had forward/side scatter readings that were sufficiently different from the main cell population were excluded. Each sample was capped at 5,000 gated events.
Analysis was conducted using Graphpad Prism 7. For each sample, the mean fluorescence intensity and the number of gated cells was measured (FIGS. 8 and 9) and the intensity multiplied by the cell number was calculated (FIG. 7).

HeLa 654 cells [2] = assay: Cytotoxicity by gated cell count and propidium iodide staining in flow cytometry; type: cell-based, human; settings: at the concentrations tested in dose-response, 22 h
Text: The different modules led to several noticeable trends in the level of cellular fluorescence (FIG. 6). When module 2 was DPV6, the overall construct consistently led to high fluorescence, regardless of which peptides were placed in module 3 and 4. However, when either pVEC or TP10 was placed in module 2, minor cellular fluorescence was observed. A gated cell count was used during flow cytometry as an indirect read-out to control for the toxicity of the compounds. Highly toxic compounds led to a reduction in overall cell count and non-viable cells were gated out based upon propidium iodide staining. In this experiment, it was observed that when the module 3 peptide was the nuclear localization sequence KRVK, lower cell counts were consistently observed.
In the same format as described above, HeLa 654 cells were treated with varying concentrations of Mach 2, 3, 4, and 7 for 22 hours and analyzed by flow cytometry.
as §1

Row | SMILES | PMO delivery / activity, result in words (HeLa 654 cells [1]) | FOLD OVER PMO (HeLa 654 cells [1]) | cytotoxicity as determined by cell count and PI staining (HeLa 654 cells [2])
1 | CC[C@H](C)[C@H](NC(=O)[C@H](CC(C)C)NC(=O)[C@H](CCCNC(=N)N)NC(=O)CCCCCNC(=O)[C@H](Cc1ccc(O)cc1)NC(=O)[C@H](CCCCN)NC(=O)CCCCCNC(=O)[C@H](C)NC(=O)[C@H](CO)NC(=O)[C@H](CCCNC(=N)N)NC(=O)[C@H](C)NC(=O)[C@H](CCCCN)NC(=O)[C@H](Cc1c[nH]c2ccccc12)NC(=O)[C@H](CC(C)C)NC(=O)[C@H](Cc1c[nH]c2ccccc12)NC(=O)[C@H](CCCCN)NC(=O)[C@H](CCCCN)NC(=O)[C@H](CCCCN)NC(=O)[C@H](CCC(N)=O)NC(=O)[C@H](CCCCN)NC(=O)[C@H](CO)NC(=O)[C@H](CO)NC(=O)[C@H](CCCCN)NC(=O)[C@H](CCCCN)NC(=O)[C@H](CC(C)C)NC(=O)[C@H](CCCNC(=N)N)NC(=O)[C@H](CCCCN)NC(=O)[C@H](CCCCN)NC(=O)[C@H](CCCCN)NC(=O)[C@H](Cc1c[nH]c2ccccc12)NC(=O)[C@H](CC(C)C)NC(=O)[C@H](C)NC(=O)[C@H](C)NC(=O)[C@H](C)NC(=O)[C@@H]1CCCN1C(=O)[C@@H](NC(=O)[C@H](CCCCN)NC(=O)[C@H](Cc1c[nH]c2ccccc12)NC(=O)[C@H](C)NC(=O)[C@H](CCCNC(=N)N)NC(=O)[C@H](C)NC(=O)[C@H](C)NC(=O)CCNC(=O)[C@H](CCC(N)=O)NC(=O)[C@@H](NC(=O)[C@H](C)NC(=O)CCCCCNC(=O)[C@@H]1CCCN1C(=O)[C@H](Cc1c[nH]cn1)NC(=O)[C@H](CCCCN)NC(=O)CCCCCNC(=O)CCCCn1nnc2c1-c1ccccc1N(C(=O)CCCCC(=O)N1C[C@@H](COP(=O)(N(C)C)N3C[C@@H](COP(=O)(N(C)C)N4C[C@@H](COP(=O)(N(C)C)N5C[C@@H](COP(=O)(N(C)C)N6C[C@@H](COP(=O)(N(C)C)N7C[C@@H](COP(=O)(N(C)C)N8C[C@@H](COP(=O)(N(C)C)N9C[C@@H](COP(=O)(N(C)C)N%10C[C@@H](COP(=O)(N(C)C)N%11C[C@@H](COP(=O)(N(C)C)N%12C[C@@H](COP(=O)(N(C)C)N%13C[C@@H](COP(=O)(N(C)C)N%14C[C@@H](COP(=O)(N(C)C)N%15C[C@@H](COP(=O)(N(C)C)N%16C[C@@H](COP(=O)(N(C)C)N%17C[C@@H](COP(=O)(N(C)C)N%18C[C@@H](COP(=O)(N(C)C)N%19C[C@@H](COP(=O)(N(C)C)N%20CCN(C(=O)OCCOCCOCCO)CC%20)O[C@@H](n%20cnc%21c(=O)[nH]c(N)nc%21%20)C%19)O[C@@H](n%19ccc(N)nc%19=O)C%18)O[C@@H](n%18cc(C)c(=O)[nH]c%18=O)C%17)O[C@@H](n%17cnc%18c(N)ncnc%18%17)C%16)O[C@@H](n%16cc(C)c(=O)[nH]c%16=O)C%15)O[C@@H](n%15cc(C)c(=O)[nH]c%15=O)C%14)O[C@@H](n%14cnc%15c(N)ncnc%15%14)C%13)O[C@@H](n%13ccc(N)nc%13=O)C%12)O[C@@H](n%12ccc(N)nc%12=O)C%11)O[C@@H](n%11cc(C)c(=O)[nH]c%11=O)C%10)O[C@@H](n%10cc(C)c(=O)[nH]c%10=O)C9)O[C@@H](n9cnc%10c(N)ncnc%109)C8)O[C@@H](n8cnc9c(N)ncnc98)C7)O[C@@H](n7ccc(N)nc7=O)C6)O[C@@H](n6ccc(N)nc6=O)C5)O[C@@H](n5ccc(N)nc5=O)C4)O[C@@H](n4cnc5c(N)ncnc54)C3)O[C@@H](n3cnc4c(=O)[nH]c(N)nc43)C1)Cc1ccccc1-2)C(C)C)C(C)C)C(N)=O (some centres unmarked) [MACH 7] | nearly identical | 36 | no cytotoxicity
2 | CSCC[C@H](NC(=O)[C@H](CCCCN)NC(=O)[C@H](CCCCN)NC(=O)[C@@H]1CCCN1C(=O)[C@H](CCC(N)=O)NC(=O)[C@@H]1CCCN1C(=O)[C@@H](NC(=O)[C@H](CCCCN)NC(=O)[C@H](CCCCN)NC(=O)[C@H](CCCCN)NC(=O)[C@@H]1CCCN1C(=O)[C@H](Cc1c[nH]c2ccccc12)NC(=O)[C@H](CCCNC(=N)N)NC(=O)[C@H](Cc1c[nH]cn1)NC(=O)[C@H](CCCCN)NC(=O)[C@H](CCCCN)NC(=O)[C@H](CCCCN)NC(=O)[C@H](CC(N)=O)NC(=O)[C@H](CCC(N)=O)NC(=O)[C@H](CCCCN)NC(=O)[C@H](CCCCN)NC(=O)CNC(=O)[C@H](CCCCN)NC(=O)[C@H](CCCCN)NC(=O)CCCCn1nnc2c1-c1ccccc1N(C(=O)CCCCC(=O)N1C[C@@H](COP(=O)(N(C)C)N3C[C@@H](COP(=O)(N(C)C)N4C[C@@H](COP(=O)(N(C)C)N5C[C@@H](COP(=O)(N(C)C)N6C[C@@H](COP(=O)(N(C)C)N7C[C@@H](COP(=O)(N(C)C)N8C[C@@H](COP(=O)(N(C)C)N9C[C@@H](COP(=O)(N(C)C)N%10C[C@@H](COP(=O)(N(C)C)N%11C[C@@H](COP(=O)(N(C)C)N%12C[C@@H](COP(=O)(N(C)C)N%13C[C@@H](COP(=O)(N(C)C)N%14C[C@@H](COP(=O)(N(C)C)N%15C[C@@H](COP(=O)(N(C)C)N%16C[C@@H](COP(=O)(N(C)C)N%17C[C@@H](COP(=O)(N(C)C)N%18C[C@@H](COP(=O)(N(C)C)N%19C[C@@H](COP(=O)(N(C)C)N%20CCN(C(=O)OCCOCCOCCO)CC%20)O[C@@H](n%20cnc%21c(=O)[nH]c(N)nc%21%20)C%19)O[C@@H](n%19ccc(N)nc%19=O)C%18)O[C@@H](n%18cc(C)c(=O)[nH]c%18=O)C%17)O[C@@H](n%17cnc%18c(N)ncnc%18%17)C%16)O[C@@H](n%16cc(C)c(=O)[nH]c%16=O)C%15)O[C@@H](n%15cc(C)c(=O)[nH]c%15=O)C%14)O[C@@H](n%14cnc%15c(N)ncnc%15%14)C%13)O[C@@H](n%13ccc(N)nc%13=O)C%12)O[C@@H](n%12ccc(N)nc%12=O)C%11)O[C@@H](n%11cc(C)c(=O)[nH]c%11=O)C%10)O[C@@H](n%10cc(C)c(=O)[nH]c%10=O)C9)O[C@@H](n9cnc%10c(N)ncnc%109)C8)O[C@@H](n8cnc9c(N)ncnc98)C7)O[C@@H](n7ccc(N)nc7=O)C6)O[C@@H](n6ccc(N)nc6=O)C5)O[C@@H](n5ccc(N)nc5=O)C4)O[C@@H](n4cnc5c(N)ncnc54)C3)O[C@@H](n3cnc4c(=O)[nH]c(N)nc43)C1)Cc1ccccc1-2)C(C)C)C(=O)N[C@@H](Cc1ccccc1)C(=O)N[C@@H](CCCCN)C(=O)N[C@@H](CCC(N)=O)C(=O)NCC(=O)N[C@@H](C)C(=O)NCCC(=O)NCCCCCC(=O)N[C@@H](CCCNC(=N)N)C(=O)NCCCCCC(N)=O (some centres unmarked) [MACH 4] | – | 25 | no cytotoxicity
